Measurements taken from patent US11339160B2, “Imidazole and triazole containing bicyclic compounds as JAK inhibitors” (THERAVANCE BIOPHARMA R&D IP, LLC, priority 2019, dated 2022).

These compounds were tested against JAK3 (Homo sapiens (Human), UniProt P52333) (assay: Biochemical JAK3 kinase assay (LanthaScreen)). Conditions: selectivity, difference of pKi values.
JAK3, sequence (P52333 whole entry): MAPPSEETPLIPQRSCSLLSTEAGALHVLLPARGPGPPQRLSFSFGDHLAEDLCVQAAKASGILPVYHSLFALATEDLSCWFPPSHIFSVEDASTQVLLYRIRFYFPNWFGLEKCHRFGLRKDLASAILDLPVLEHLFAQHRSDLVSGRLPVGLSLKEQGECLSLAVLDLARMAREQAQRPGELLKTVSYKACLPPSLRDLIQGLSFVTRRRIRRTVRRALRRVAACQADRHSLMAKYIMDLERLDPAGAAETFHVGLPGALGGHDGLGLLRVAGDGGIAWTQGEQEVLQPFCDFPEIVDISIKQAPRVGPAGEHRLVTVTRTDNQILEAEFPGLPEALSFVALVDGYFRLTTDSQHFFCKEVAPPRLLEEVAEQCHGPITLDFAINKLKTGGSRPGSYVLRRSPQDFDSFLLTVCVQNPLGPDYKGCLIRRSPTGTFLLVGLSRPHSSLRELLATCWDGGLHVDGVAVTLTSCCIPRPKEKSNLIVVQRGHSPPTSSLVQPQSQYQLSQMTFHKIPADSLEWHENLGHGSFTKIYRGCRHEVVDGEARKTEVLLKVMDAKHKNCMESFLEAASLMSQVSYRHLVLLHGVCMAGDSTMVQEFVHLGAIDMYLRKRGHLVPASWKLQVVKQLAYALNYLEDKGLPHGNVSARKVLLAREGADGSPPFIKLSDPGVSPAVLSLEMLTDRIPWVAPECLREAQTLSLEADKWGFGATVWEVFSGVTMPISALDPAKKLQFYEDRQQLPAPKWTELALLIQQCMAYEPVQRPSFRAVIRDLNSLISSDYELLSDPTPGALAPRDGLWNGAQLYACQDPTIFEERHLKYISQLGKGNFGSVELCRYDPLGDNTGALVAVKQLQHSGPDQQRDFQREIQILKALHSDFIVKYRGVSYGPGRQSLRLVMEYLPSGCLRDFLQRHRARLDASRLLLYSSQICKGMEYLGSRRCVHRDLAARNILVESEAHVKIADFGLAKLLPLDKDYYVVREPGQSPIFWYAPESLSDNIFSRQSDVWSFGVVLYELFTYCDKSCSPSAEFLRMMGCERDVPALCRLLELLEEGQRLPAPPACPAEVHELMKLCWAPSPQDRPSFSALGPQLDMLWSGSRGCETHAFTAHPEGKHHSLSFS
Description: Assay 1: Biochemical JAK and Tyk2 Kinase Assays
A panel of four LanthaScreen JAK biochemical assays (JAK1, 2, 3 and Tyk2) were carried in a common kinase reaction buffer (50 mM HEPES, pH 7.5, 0.01% Brij-35, 10 mM MgCl2, and 1 mM EGTA). Recombinant GST-tagged JAK enzymes and a GFP-tagged STAT1 peptide substrate were obtained from Life Technologies.
Serially or discretely diluted compounds were pre-incubated with each of the four JAK enzymes and the substrate in white 384-well microplates (Corning) at ambient temperature for 1 h. ATP was subsequently added to initiate the kinase reactions in 10 μL total volume, with 1% DMSO. […] Kinase reactions were allowed to proceed for 1 hour at ambient temperature before a 10 μL preparation of EDTA (10 mM final concentration) and Tb-anti-pSTAT1 (pTyr701) antibody (Life Technologies, 2 nM final concentration) in TR-FRET dilution buffer (Life Technologies) was added. The plates were allowed to incubate at ambient temperature for 1 h before being read on the EnVision reader (Perkin Elmer). Emission ratio signals (520 nm/495 nm) were recorded and utilized to calculate the percent inhibition values based on DMSO and background controls.
For dose-response analysis, percent inhibition data were plotted vs. compound concentrations, and IC50 values were determined from a 4-parameter robust fit model with the Prism software (GraphPad Software). Results were expressed as pIC50 (negative logarithm of IC50) and subsequently converted to pKi (negative logarithm of dissociation constant, Ki) using the Cheng-Prusoff equation.
In the case of C=CC(=O)N1CC[C@H](Oc2cc(-c3ccc(O)cc3)cn3cncc23)C1 [Example 1, (S)-1-(3-((6-(4-hydroxyphenyl)imidazo[1,5-a]pyridin-8-yl)oxy)pyrrolidin-1-yl)prop-2-en-1-one], the “JAK3 (pKi)-JAK1 (pKi)” value is reported as “A (a value of 3 or above)”.
In the case of C=CC(=O)N1CCC(COc2cc(-c3ccc(O)cc3)cn3cncc23)CC1 [Example 2, 1-(4-(((6-(4-hydroxyphenyl)imidazo[1,5-a]pyridin-8-yl)oxy)methyl)piperidin-1-yl)prop-2-en-1-one], the “JAK3 (pKi)-JAK1 (pKi)” value is reported as “A (a value of 3 or above)”.
With C=CC(=O)N1CC2(CCC2Oc2cc(-c3ccc(O)cc3)cn3cncc23)C1 (stereo not drawn) [Example 3, 1-(5-((6-(4-hydroxyphenyl)imidazo[1,5-a]pyridin-8-yl)oxy)-2-azaspiro[3.3]heptan-2-yl)prop-2-en-1-one] the “JAK3 (pKi)-JAK1 (pKi)” value was “A (a value of 3 or above)”.
With C=CC(=O)N1CCC(Nc2cc(-c3ccc(O)cc3)cn3cncc23)CC1 [Example 4, 1-(4-((6-(4-hydroxyphenyl)imidazo[1,5-a]pyridin-8-yl)amino)piperidin-1-yl)prop-2-en-1-one] the “JAK3 (pKi)-JAK1 (pKi)” value was “B (a value of 2.3 to 3)”.
In the case of C=CC(=O)N1CC(COc2cc(-c3ccc(O)cc3)cn3cnnc23)C1 [Example 5, 1-(3-(((6-(4-hydroxyphenyl)-[1,2,4]triazolo[4,3-a]pyridin-8-yl)oxy)methyl)azetidin-1-yl)prop-2-en-1-one], the “JAK3 (pKi)-JAK1 (pKi)” value is reported as “A (a value of 3 or above)”.
C=CC(=O)N1CC(COc2nc(-c3ccc(O)cc3)cn3cncc23)C1 [Example 6, 1-(3-(((6-(4-hydroxyphenyl)imidazo[1,5-a]pyrazin-8-yl)oxy)methyl)azetidin-1-yl)prop-2-en-1-one] was tested, and the “JAK3 (pKi)-JAK1 (pKi)” value was “A (a value of 3 or above)”.
With C=CC(=O)N1CC(COc2cc(-c3c(F)cc(O)cc3F)cn3cncc23)C1 [Example 7, 1-(3-(((6-(2,6-difluoro-4-hydroxyphenyl)imidazo[1,5-a]pyridin-8-yl)oxy)methyl)azetidin-1-yl)prop-2-en-1-one] the “JAK3 (pKi)-JAK1 (pKi)” value was “A (a value of 3 or above)”.
C=CC(=O)N1CC(COc2cc(-c3ccc(O)c(F)c3F)cn3cncc23)C1 [Example 8, 1-(3-(((6-(2,3-difluoro-4-hydroxyphenyl)imidazo[1,5-a]pyridin-8-yl)oxy)methyl)azetidin-1-yl)prop-2-en-1-one] was tested, and the “JAK3 (pKi)-JAK1 (pKi)” value was “A (a value of 3 or above)”.
With C=CC(=O)N1CCC(Oc2cc(-c3ccc(O)cc3)cn3cncc23)C(F)(F)C1 (stereo not drawn) [Example 14, 1-(3,3-difluoro-4-((6-(4-hydroxyphenyl)imidazo[1,5-a]pyridin-8-yl)oxy)piperidin-1-yl)prop-2-en-1-one] the “JAK3 (pKi)-JAK1 (pKi)” value was “A (a value of 3 or above)”.
For C=CC(=O)N1CCC[C@H](Oc2cc(-c3cc(F)c(O)cc3CC)cn3cncc23)C1 [Example 16], the “JAK3 (pKi)-JAK1 (pKi)” value was “B (a value of 2.3 to 3)”.
With CCc1cc(O)c(F)cc1-c1cc(O[C@H]2CCCN(C(=O)/C=C/CN(C)C)C2)c2cncn2c1 [Example 18] the “JAK3 (pKi)-JAK1 (pKi)” value was “B (a value of 2.3 to 3)”.
With CN(C)C/C=C/C(=O)N1CC(COc2cc(-c3ccc(O)cc3)cn3cncc23)C1 [Example 19] the “JAK3 (pKi)-JAK1 (pKi)” value was “A (a value of 3 or above)”.
C=CC(=O)N1CC(COc2cc(-c3ccc(O)cc3CC)cn3cncc23)C1 [Example 21] was tested, and the “JAK3 (pKi)-JAK1 (pKi)” value was “A (a value of 3 or above)”.
In the case of CN(C)C/C=C/C(=O)N1CC(COc2cc(-c3ccc(O)c(F)c3)cn3cncc23)C1 [Example 22], the “JAK3 (pKi)-JAK1 (pKi)” value is reported as “A (a value of 3 or above)”.
CN(C)C/C=C/C(=O)N1CC(COc2cc(-c3ccc(O)c(Cl)c3)cn3cncc23)C1 [Example 23] was tested, and the “JAK3 (pKi)-JAK1 (pKi)” value was “A (a value of 3 or above)”.
In the case of CCc1cc(O)ccc1-c1cc(OCC2CN(C(=O)/C=C/CN(C)C)C2)c2cncn2c1 [Example 25], the “JAK3 (pKi)-JAK1 (pKi)” value is reported as “A (a value of 3 or above)”.
For C=CC(=O)N1CC[C@H](COc2cc(-c3ccc(O)cc3)cn3cncc23)C1 [Example 26], the “JAK3 (pKi)-JAK1 (pKi)” value was “A (a value of 3 or above)”.
In the case of C=CC(=O)N1CCC[C@H](Oc2cc(-c3ccc(O)cc3)cn3cncc23)C1 [Example 27], the “JAK3 (pKi)-JAK1 (pKi)” value is reported as “A (a value of 3 or above)”.
With C=CC(=O)N1CC(CSc2cc(-c3ccc(O)cc3)cn3cncc23)C1 [Example 29] the “JAK3 (pKi)-JAK1 (pKi)” value was “A (a value of 3 or above)”.
C=CC(=O)N1CCC(Oc2cc(-c3ccc(O)cc3)cn3cncc23)CC1 [Example 30] was tested, and the “JAK3 (pKi)-JAK1 (pKi)” value was “A (a value of 3 or above)”.
For C=CC(=O)N1CC(COc2cc(-c3cc(F)c(O)c(F)c3)cn3cncc23)C1 [Example 32], the “JAK3 (pKi)-JAK1 (pKi)” value was “A (a value of 3 or above)”.
In the case of C=CC(=O)N1CC(COc2cc(-c3cc(Cl)c(O)c(Cl)c3)cn3cncc23)C1 [Example 33], the “JAK3 (pKi)-JAK1 (pKi)” value is reported as “A (a value of 3 or above)”.
In the case of C=CC(=O)N1CC(COc2cc(-c3cc(C)c(O)c(C)c3)cn3cncc23)C1 [Example 35], the “JAK3 (pKi)-JAK1 (pKi)” value is reported as “A (a value of 3 or above)”.
C=CC(=O)N1[C@@H]2CC[C@H]1C[C@@H](Oc1cc(-c3ccc(O)cc3)cn3cncc13)C2 [Example 36] was tested, and the “JAK3 (pKi)-JAK1 (pKi)” value was “A (a value of 3 or above)”.
C=CC(=O)N1CC2(CC(Oc3cc(-c4ccc(O)cc4)cn4cncc34)C2)C1 [Example 37] was tested, and the “JAK3 (pKi)-JAK1 (pKi)” value was “A (a value of 3 or above)”.
In the case of C=CC(=O)N1CC[C@H](Oc2cc(-c3ccc(O)cc3)cn3cncc23)C[C@@H]1C [Example 38], the “JAK3 (pKi)-JAK1 (pKi)” value is reported as “A (a value of 3 or above)”.
With C=CC(=O)N1CC[C@@H](Oc2cc(-c3ccc(O)cc3)cn3cncc23)C[C@@H]1C [Example 39] the “JAK3 (pKi)-JAK1 (pKi)” value was “A (a value of 3 or above)”.
C=CC(=O)N1[C@H](C)C[C@H](Oc2cc(-c3ccc(O)cc3)cn3cncc23)C[C@@H]1C [Example 40] was tested, and the “JAK3 (pKi)-JAK1 (pKi)” value was “B (a value of 2.3 to 3)”.
C=CC(=O)N1CC[C@@H](Oc2cc(-c3ccc(O)cc3)cn3cncc23)[C@@H](C)C1 [Example 41] was tested, and the “JAK3 (pKi)-JAK1 (pKi)” value was “A (a value of 3 or above)”.
With C=CC(=O)N1CC(COc2cc(-c3ccc(O)cc3C(F)(F)F)cn3cncc23)C1 [Example 42] the “JAK3 (pKi)-JAK1 (pKi)” value was “A (a value of 3 or above)”.
C=CC(=O)N1CC(COc2cc(-c3cc(C)c(O)cc3C)cn3cncc23)C1 [Example 43] was tested, and the “JAK3 (pKi)-JAK1 (pKi)” value was “A (a value of 3 or above)”.
For C=CC(=O)N1CC(COc2cc(-c3ccc(O)cc3C)cn3cncc23)C1 [Example 44], the “JAK3 (pKi)-JAK1 (pKi)” value was “A (a value of 3 or above)”.
With C=CC(=O)N1CC(COc2cc(-c3ccc(O)cc3OC)cn3cncc23)C1 [Example 45] the “JAK3 (pKi)-JAK1 (pKi)” value was “A (a value of 3 or above)”.
C=CC(=O)N1CC2(CCC2Oc2cc(-c3cc(F)c(O)cc3CC)cn3cncc23)C1 (stereo not drawn) [Example 46] was tested, and the “JAK3 (pKi)-JAK1 (pKi)” value was “B (a value of 2.3 to 3)”.
With C=CC(=O)N1CCC(Oc2cc(-c3cc(F)c(O)cc3CC)cn3cncc23)CC1 [Example 47] the “JAK3 (pKi)-JAK1 (pKi)” value was “B (a value of 2.3 to 3)”.
For C=CC(=O)N1[C@@H]2CC[C@H]1C[C@H](Oc1cc(-c3cc(F)c(O)cc3CC)cn3cncc13)C2 [Example 48], the “JAK3 (pKi)-JAK1 (pKi)” value was “A (a value of 3 or above)”.
For C=CC(=O)N1CCC(Oc2cc(-c3cc(F)c(O)cc3CC)cn3cncc23)C(F)(F)C1 (stereo not drawn) [Example 49], the “JAK3 (pKi)-JAK1 (pKi)” value was “C (a value of 1.8 to 2.3)”.
In the case of C=CC(=O)N1[C@@H]2CC[C@H]1C[C@H](Nc1cc(-c3ccc(O)cc3)cn3cncc13)C2 [Example 50], the “JAK3 (pKi)-JAK1 (pKi)” value is reported as “B (a value of 2.3 to 3)”.
In the case of C=CC(=O)N1CCC[C@H](Nc2cc(-c3ccc(O)cc3)cn3cncc23)C1 [Example 51], the “JAK3 (pKi)-JAK1 (pKi)” value is reported as “B (a value of 2.3 to 3)”.
C=CC(=O)N1CC(CNc2cc(-c3ccc(O)cc3)cn3cncc23)C1 [Example 52] was tested, and the “JAK3 (pKi)-JAK1 (pKi)” value was “B (a value of 2.3 to 3)”.

Each compound was assayed on IL-2 stimulated STAT5 phosphorylation in CD4+ T cells isolated from murine splenocytes (assay: Inhibition of IL-2 stimulated pSTAT5 in CD4+ T cells isolated from murine splenocytes). Conditions: Mus musculus, IL-2 7 ng/ml, read-out: pIC50, inhibition of IL-2 stimulated pSTAT5 (converted).
Assay type: cell-based
Description: Assay 3: Inhibition of IL-2 Stimulated pSTAT5 in CD4+ T Cells Isolated from Murine Splenocytes
The potency of test compounds for inhibition of interleukin-2 (IL-2) stimulated STAT5 phosphorylation was measured in the CD4+ T cells isolated from murine splenocytes using AlphaLisa. Because IL-2 signals through JAK3, this assay provides a measure of JAK3 cellular potency in mouse.
Phosphorylated STAT5 was measured via the AlphaLISA SureFire Ultra pSTAT5 (Tyr694/699) kit (PerkinElmer).
CD4+ T cells were isolated from murine splenocytes via negative selection on a magnetic column (Miltnyi Biotec) and re-suspended in assay media (phenol red-free DMEM (Life Technologies) supplemented with 10% FBS (ATCC)). Cells were seeded at 50,000 cells/well in assay media (2 μL/well). Compounds were serially diluted in DMSO and diluted to 2× final concentration in assay media. Compound was added (4 μl/well) and the cells incubated at 37° C., 5% CO2 for 1 hour, followed by the addition of IL-2 (R&D Systems; final concentration 7 ng/ml) in pre-warmed assay media (2 μL) for 30 minutes. After cytokine stimulation, cells were lysed with 2 μl of 5× AlphaLisa Lysis Buffer (PerkinElmer). The lysate was shaken at 900 rpm for 10 minutes at room temperature (RT). Phosphorylated STAT5 was measured via the pSTAT5 AlphaLisa kit (PerkinElmer). Freshly prepared acceptor bead mixture was dispensed onto lysate (5 ul) under green filtered <100 lux light. Plates were shaken at 900 rpm for 2 mins, briefly spun down, and incubated for 2 hrs at RT in the dark. Donor beads were dispensed (5 μl) under green filtered <100 lux light. Plates were shaken at 900 rpm for 2 mins, briefly spun down, and incubated overnight at RT in the dark. Luminescence was measured with excitation at 689 nm and emission at 570 nm using an EnVision plate reader (PerkinElmer) under green filtered <100 lux light.
To determine the inhibitory potency of test compounds in response to IL-2, the average emission intensity of beads bound to pSTAT5 was measured in primary CD4+ T cells isolated from murine splenocytes. IC50 values were determined from analysis of the inhibition curves of signal intensity vs compound concentration. Data are expressed as pIC50 (negative decadic logarithm IC50) values (mean standard deviation).
For C=CC(=O)N1CC(COc2cc(-c3c(F)cc(O)cc3F)cn3cncc23)C1 [Example 7, 1-(3-(((6-(2,6-difluoro-4-hydroxyphenyl)imidazo[1,5-a]pyridin-8-yl)oxy)methyl)azetidin-1-yl)prop-2-en-1-one], the IC50 was < 1000 nM.
For C=CC(=O)N1CC(COc2cc(-c3ccc(O)c(F)c3F)cn3cncc23)C1 [Example 8, 1-(3-(((6-(2,3-difluoro-4-hydroxyphenyl)imidazo[1,5-a]pyridin-8-yl)oxy)methyl)azetidin-1-yl)prop-2-en-1-one], the IC50 was < 1000 nM.
